# Experimental data as given in patent publication US20150105252A1, “SUBSTITUTED PYRAZOLES AS HERBICIDES” (E I DU PONT DE NEMOURS AND COMPANY, priority 2013, published 2015).
# Columns and labels:
# morningglory = test: Test A preemergence; type: in vivo, Ipomoea spp.; conditions: preemergence
# How it was run: (§1)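 After sowing in a sand–loam mix, pots received compound preemergence by directed soil spray, or postemergence once plants reached the one- to two-leaf stage (2–10 cm). Formulation contained surfactant in a non-phytotoxic solvent. Injury was scored visually after ~10 greenhouse days, 0–100 scale.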
# pigweed [1] = test: Test A postemergence; type: in vivo, Amaranthus retroflexus
# How it was run: as §1
# blackgrass = test: Test C preemergence; type: in vivo, Alopecurus myosuroides; conditions: for Plant response rating (scale of 0 to 100), Blackgrass: Preemergence; for Blackgrass plant response rating / Plant response rating, Blackgrass: preemergence; for Plant response rating, Blackgrass: scale 0 to 100, 0 = no effect, 100 = complete control
# How it was run: (§2)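 Greenhouse pot test: preemergence application onto freshly seeded loam/sand mix, postemergence application onto seedlings (1–4 leaves, 2–18 cm) in peat-vermiculite substrate. Responses scored visually 13 to 15 days later relative to controls, where 0 means no effect and 100 means complete control; a dash indicates no result.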
# barnyardgrass [2] = test: Test A preemergence; type: in vivo, Echinochloa crus-galli; conditions: preemergence
# How it was run: as §1
# corn [3] = test: Test A preemergence; type: in vivo, Zea mays; conditions: preemergence
# How it was run: as §1
# wheat = test: Test C preemergence; type: in vivo, Triticum aestivum; conditions: for Plant response rating (scale of 0 to 100), Wheat: Preemergence; for Wheat plant response rating / Plant response rating, Wheat: preemergence; for Plant response rating, Wheat: scale 0 to 100, 0 = no effect, 100 = complete control
# How it was run: as §2
# velvetleaf [4] = test: Test A postemergence; type: in vivo, Abutilon theophrasti
# How it was run: as §1
# pigweed [5] = test: Test A preemergence; type: in vivo, Amaranthus retroflexus; conditions: preemergence
# How it was run: as §1
# crabgrass, large [6] = test: Test A postemergence; type: in vivo, Digitaria sanguinalis
# How it was run: as §1
# velvetleaf [7] = test: Test A preemergence; type: in vivo, Abutilon theophrasti; conditions: preemergence
# How it was run: as §1
# oilseed rape = test: Test C preemergence; type: in vivo, Brassica napus; conditions: for Plant response rating (scale of 0 to 100), Oilseed Rape: Preemergence; for Oilseed Rape plant response rating / Plant response rating, Oilseed Rape: preemergence; for Plant response rating, Oilseed Rape: scale 0 to 100, 0 = no effect, 100 = complete control
# How it was run: as §2
# crabgrass, large [8] = test: Test A preemergence; type: in vivo, Digitaria sanguinalis; conditions: preemergence
# How it was run: as §1
# rice = test: Test B flood; type: in vivo, Oryza sativa; conditions: 250 g ai/ha, visual rating on 0 to 100 scale (0 no effect, 100 complete control), 13 to 15 days
# How it was run: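 Response scored visually, 0–100 relative to controls, 13–15 days after the compound was applied into paddy water; plants were at the 2-leaf stage in pots kept flooded to 3 cm.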
# barnyardgrass [9] = test: Test A postemergence; type: in vivo, Echinochloa crus-galli
# How it was run: as §1
# corn [10] = test: Test C preemergence; type: in vivo, Zea mays; conditions: for Plant response rating (scale of 0 to 100), Corn: Preemergence; for Corn plant response rating / Plant response rating, Corn: preemergence; for Plant response rating, Corn: scale 0 to 100, 0 = no effect, 100 = complete control
# How it was run: as §2
# [11] = 125 g ai/ha, visual injury, 0 to 100 scale, approx. 10 days
# [12] = 500 g ai/ha, visual injury after approx. 10 days, 0 to 100 scale (0 no effect, 100 complete control)
# [13] = Postemergence, 500 g ai/ha, visual rating after approx. 10 days, 0 to 100 scale (0 no effect, 100 complete control)
# [14] = postemergence, 125 g ai/ha, about 10 days, visual rating on 0 to 100 scale (0 no effect, 100 complete control)
# [15] = 31 g ai/ha, visual rating, scale 0 to 100 (0 no effect, 100 complete control), 13 to 15 days
# [16] = 62 g ai/ha, scale 0 to 100 (0 no effect, 100 complete control), 13 to 15 days
# [17] = 125 g ai/ha, scale 0 to 100, 0 is no effect, 100 is complete control
# [18] = Postemergence, 500 g ai/ha, 0 to 100 scale (0 no effect, 100 complete control)
# [19] = 250 g ai/ha, scale 0 to 100, 0 is no effect, 100 is complete control
Compound,Morningglory plant response rating (morningglory; [11]),Morningglory plant response rating (morningglory; [12]),Pigweed plant response rating (pigweed [1]; [14]),Blackgrass plant response rating (blackgrass; [15]),Blackgrass plant response rating (blackgrass; [16]),Barnyardgrass plant response rating (barnyardgrass [2]; [11]),Barnyardgrass plant response rating (barnyardgrass [2]; [12]),Corn plant response rating (corn [3]; [11]),Corn plant response rating (corn [3]; [12]),Wheat plant response rating (wheat; [15]),Wheat plant response rating (wheat; [16]),Velvetleaf plant response rating (velvetleaf [4]; [14]),Pigweed plant response rating (pigweed [5]; [11]),Pigweed plant response rating (pigweed [5]; [12]),"Crabgrass, Large plant response rating (crabgrass, large [6]; [14])",Velvetleaf plant response rating (velvetleaf [7]; [11]),Velvetleaf plant response rating (velvetleaf [7]; [12]),Oilseed Rape plant response rating (oilseed rape; [15]),Oilseed Rape plant response rating (oilseed rape; [16]),"Crabgrass, Large plant response rating (crabgrass, large [8]; [11])",other results
CCCc1cc(C(=O)NCC(F)(F)F)nn1Cc1ccnc(C(F)(F)F)c1 [Compound 105],100,100,100,90,90,100,100,60,70,75,85,100,100,100,100,100,100,95,95,100,"Pigweed plant response rating (pigweed [1]; [13]): 100; Plant response rating (scale of 0 to 100), Blackgrass (blackgrass; 250 g ai/ha): 90; Blackgrass plant response rating (blackgrass; [17]): 90; Plant response rating (scale of 0 to 100), Wheat (wheat; 250 g ai/ha): 90; Wheat plant response rating (wheat; [17]): 90; Velvetleaf plant response rating (velvetleaf [4]; [13]): 100; Crabgrass, Large plant response rating (crabgrass, large [6]; [13]): 100; Plant response rating (scale of 0 to 100), Oilseed Rape (oilseed rape; 250 g ai/ha): 100; Oilseed Rape plant response rating (oilseed rape; [17]): 95; Crabgrass, Large plant response rating (crabgrass, large [8]; [12]): 100; Plant response rating, Rice (rice): 90; Barnyardgrass plant response rating (barnyardgrass [9]; [13]): 100; Barnyardgrass plant response rating (barnyardgrass [9]; [14]): 90; Plant response rating (scale of 0 to 100), Corn (corn [10]; 250 g ai/ha): 95; Corn plant response rating (corn [10]; [15]): 65; Corn plant response rating (corn [10]; [17]): 80"
CCCc1cc(C(=O)NCC)nn1Cc1cc(C(F)(F)F)nn1C [Compound 129],100,100,100,60,80,90,100,10,30,0,35,90,100,100,80,100,100,95,95,100,"Pigweed plant response rating (pigweed [1]; [18]): 100; Plant response rating (scale of 0 to 100), Blackgrass (blackgrass; 250 g ai/ha): 90; Plant response rating, Blackgrass (blackgrass; 125 g ai/ha, 13 to 15 days): 90; Plant response rating (scale of 0 to 100), Wheat (wheat; 250 g ai/ha): 90; Plant response rating, Wheat (wheat; 125 g ai/ha, 13 to 15 days): 85; Velvetleaf plant response rating (velvetleaf [4]; [18]): 100; Crabgrass, Large plant response rating (crabgrass, large [6]; [18]): 90; Plant response rating (scale of 0 to 100), Oilseed Rape (oilseed rape; 250 g ai/ha): 100; Plant response rating, Oilseed Rape (oilseed rape; 125 g ai/ha, 13 to 15 days): 100; Crabgrass, Large plant response rating (crabgrass, large [8]; [12]): 100; Plant response rating, Rice (rice): 40; Barnyardgrass plant response rating (barnyardgrass [9]; [18]): 90; Barnyardgrass plant response rating (barnyardgrass [9]; [14]): 90; Plant response rating (scale of 0 to 100), Corn (corn [10]; 250 g ai/ha): 65; Corn plant response rating (corn [10]; [15]): 0; Corn plant response rating (corn [10]; [16]): 15; Plant response rating, Corn (corn [10]; 125 g ai/ha, 13 to 15 days): 55"
CCNC(=O)c1cc(CC)n(Cc2ccnc(OC(F)F)c2)n1 [Compound 130],100,100,100,25,98,90,100,0,90,0,35,80,100,100,70,70,100,75,98,100,"Pigweed plant response rating (pigweed [1]; [18]): 100; Plant response rating (scale of 0 to 100), Blackgrass (blackgrass; 250 g ai/ha): 98; Plant response rating, Blackgrass (blackgrass; 125 g ai/ha, 13 to 15 days): 98; Plant response rating (scale of 0 to 100), Wheat (wheat; 250 g ai/ha): 95; Plant response rating, Wheat (wheat; 125 g ai/ha, 13 to 15 days): 40; Velvetleaf plant response rating (velvetleaf [4]; [18]): 100; Crabgrass, Large plant response rating (crabgrass, large [6]; [18]): 90; Plant response rating (scale of 0 to 100), Oilseed Rape (oilseed rape; 250 g ai/ha): 100; Plant response rating, Oilseed Rape (oilseed rape; 125 g ai/ha, 13 to 15 days): 98; Crabgrass, Large plant response rating (crabgrass, large [8]; [12]): 100; Plant response rating, Rice (rice): 15; Barnyardgrass plant response rating (barnyardgrass [9]; [18]): 90; Barnyardgrass plant response rating (barnyardgrass [9]; [14]): 70; Plant response rating (scale of 0 to 100), Corn (corn [10]; 250 g ai/ha): 85; Corn plant response rating (corn [10]; [15]): 5; Corn plant response rating (corn [10]; [16]): 30; Plant response rating, Corn (corn [10]; 125 g ai/ha, 13 to 15 days): 45"
CCCNC(=O)c1cc(CC)n(Cc2ccnc(OC(F)F)c2)n1 [Compound 132],100,100,90,95,98,100,100,40,80,15,15,100,100,100,90,100,100,75,98,100,"Pigweed plant response rating (pigweed [1]; [18]): 100; Plant response rating (scale of 0 to 100), Blackgrass (blackgrass; 250 g ai/ha): 98; Plant response rating, Blackgrass (blackgrass; 125 g ai/ha, 13 to 15 days): 98; Plant response rating (scale of 0 to 100), Wheat (wheat; 250 g ai/ha): 95; Plant response rating, Wheat (wheat; 125 g ai/ha, 13 to 15 days): 70; Velvetleaf plant response rating (velvetleaf [4]; [18]): 100; Crabgrass, Large plant response rating (crabgrass, large [6]; [18]): 90; Plant response rating (scale of 0 to 100), Oilseed Rape (oilseed rape; 250 g ai/ha): 100; Plant response rating, Oilseed Rape (oilseed rape; 125 g ai/ha, 13 to 15 days): 100; Crabgrass, Large plant response rating (crabgrass, large [8]; [12]): 100; Plant response rating, Rice (rice): 35; Barnyardgrass plant response rating (barnyardgrass [9]; [18]): 90; Barnyardgrass plant response rating (barnyardgrass [9]; [14]): 90; Plant response rating (scale of 0 to 100), Corn (corn [10]; 250 g ai/ha): 95; Corn plant response rating (corn [10]; [15]): 55; Corn plant response rating (corn [10]; [16]): 25; Plant response rating, Corn (corn [10]; 125 g ai/ha, 13 to 15 days): 95"
CCc1cc(C(=O)NC(C)C)nn1Cc1ccnc(C(F)(F)F)c1 [Compound 139],40,100,90,85,90,90,100,30,90,30,85,40,100,100,90,30,100,50,100,100,"Pigweed plant response rating (pigweed [1]; [18]): 100; Plant response rating, Blackgrass (blackgrass; 125 g ai/ha, 13 to 15 days): 90; Blackgrass plant response rating (blackgrass; [19]): 90; Plant response rating, Wheat (wheat; 125 g ai/ha, 13 to 15 days): 85; Wheat plant response rating (wheat; [19]): 90; Velvetleaf plant response rating (velvetleaf [4]; [18]): 90; Crabgrass, Large plant response rating (crabgrass, large [6]; [18]): 90; Plant response rating, Oilseed Rape (oilseed rape; 125 g ai/ha, 13 to 15 days): 100; Oilseed Rape plant response rating (oilseed rape; [19]): 100; Crabgrass, Large plant response rating (crabgrass, large [8]; [12]): 100; Plant response rating, Rice (rice): 50; Barnyardgrass plant response rating (barnyardgrass [9]; [18]): 90; Barnyardgrass plant response rating (barnyardgrass [9]; [14]): 80; Corn plant response rating (corn [10]; [15]): 25; Corn plant response rating (corn [10]; [16]): 30; Plant response rating, Corn (corn [10]; 125 g ai/ha, 13 to 15 days): 85; Corn plant response rating (corn [10]; [19]): 80"
